IC50 data for 24 molecules are collected here from patent US20240109900A1, “AZABICYCLIC SHP2 INHIBITORS” (IRBM S.P.A., priority 2021, published 2024).

Like-named read-outs stand apart in the source and are kept apart here.

Assay [1] deals with SHP-2 enzyme (Met1-Leu525) (Homo sapiens (Human), UniProt Q06124). Nature of the assay: SHP2 inhibition enzymatic assay. The assay is classed as biochemical. The conditions noted are these: read-out: SHP2wt-IC50. A digest of the protocol:
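Compounds were preincubated 30 min with 0.5 nM SHP-2 (Met1-Leu525) plus 500 nM IRS1 activating peptide (pH 7.2 HEPES, 5 mM DTT), then 75 μM DiFMUP substrate reacted 30 min at room temperature. After bpV quench, DiFMUP fluorescence gave % inhibition; four-parameter logistic fit yielded IC50.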

In assay [2] the test system is ERK phosphorylation in KYSE-520 cells. The assay is described as follows: Phospho-ERK cellular assay. In kind it is cell-based. The conditions noted are these: Homo sapiens, KYSE-520 cells, 2 h at 37° C., phospho-ERK1/2 (Thr202/Tyr204) TR-FRET, read-out: PERK IC50. The gist of the method:
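TR-FRET read-out of ERK1/2 Thr202/Tyr204 phosphorylation was taken after overnight antibody incubation at room temperature. Before that, KYSE-520 cells were treated 2 h at 37 °C with compound dilutions and lysed 30 min. Percent inhibition relative to vehicle and cell-free wells was fitted four-parametrically to give IC50.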

Where [3] appears, read: 0.5 nM SHP-2 activated by 500 nM IRS1 peptide, 75 μM DiFMUP substrate.

SHP-2 enzyme (Met1-Leu525), sequence (Q06124 1-525): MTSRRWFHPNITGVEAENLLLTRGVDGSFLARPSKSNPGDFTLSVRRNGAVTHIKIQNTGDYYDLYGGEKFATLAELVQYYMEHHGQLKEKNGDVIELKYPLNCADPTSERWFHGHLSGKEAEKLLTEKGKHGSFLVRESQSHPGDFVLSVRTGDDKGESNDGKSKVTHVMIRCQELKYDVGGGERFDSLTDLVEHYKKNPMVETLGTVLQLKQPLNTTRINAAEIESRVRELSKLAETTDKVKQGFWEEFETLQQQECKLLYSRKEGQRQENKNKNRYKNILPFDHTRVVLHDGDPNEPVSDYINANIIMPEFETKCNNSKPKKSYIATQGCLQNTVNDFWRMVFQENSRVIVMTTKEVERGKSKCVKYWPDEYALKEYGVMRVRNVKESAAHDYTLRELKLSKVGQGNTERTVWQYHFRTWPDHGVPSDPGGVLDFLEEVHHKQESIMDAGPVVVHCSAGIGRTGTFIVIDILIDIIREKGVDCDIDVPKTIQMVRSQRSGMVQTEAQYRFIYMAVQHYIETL

Turning to `NCC1C2CCN(c3nc4nc(Sc5cccnc5C(F)(F)F)cnc4[nH]3)CC12` (stereo not drawn) [Example 68, (3-(5-((2-(trifluoromethyl)pyridin-3-yl)thio)-1H-imidazo[4,5-b]pyrazin-2-yl)-3-azabicyclo[4.1.0]heptan-7-yl)methanamine], the IC50 in assay [1] is less than 500 nM; in assay [2] it was greater than 5000 nM.
The matching figures for `NCC1(c2ccccc2)C2CCN(c3nc4nc(Sc5ccnc(N)c5Cl)cnc4[nH]3)CC21` (stereo not drawn) [Example 69, 4-((2-(7-(aminomethyl)-7-phenyl-3-azabicyclo[4.1.0]heptan-3-yl)-1H-imidazo[4,5-b]pyrazin-5-yl)thio)-3-chloropyridin-2-amine]: less than 500 nM and 1000 to 5000 nM.
The matching figures for `Cc1csc(C2(CN)C3CCN(c4nc5nc(Sc6ccnc(N)c6Cl)cnc5[nH]4)CC32)n1` (stereo not drawn) [Example 70, 4-((2-(7-(aminomethyl)-7-(4-methylthiazol-2-yl)-3-azabicyclo[4.1.0]heptan-3-yl)-1H-imidazo[4,5-b]pyrazin-5-yl)thio)-3-chloropyridin-2-amine]: less than 500 nM and less than 1000 nM.
For `NCC1(c2ccccc2)C2CCN(c3cnc(Sc4cccnc4C(F)(F)F)c(N)n3)CC21` (stereo not drawn) [Example 71, 6-(7-(aminomethyl)-7-phenyl-3-azabicyclo[4.1.0]heptan-3-yl)-3-((2-(trifluoromethyl)pyridin-3-yl)thio)pyrazin-2-amine], the IC50 was less than 500 nM in assay [1] (setting [3]) and greater than 5000 nM in assay [2] (KYSE-520, 2 h).
Turning to `NCC1(c2ccccn2)C2CCN(c3cnc(Sc4cccnc4C(F)(F)F)c(N)n3)CC21` (stereo not drawn) [Example 72, 6-(7-(aminomethyl)-7-(pyridin-2-yl)-3-azabicyclo[4.1.0]heptan-3-yl)-3-((2-(trifluoromethyl)pyridin-3-yl)thio)pyrazin-2-amine], the IC50 is less than 500 nM in assay [1] (setting [3]) and less than 1000 nM in assay [2] (KYSE-520, 2 h).
The matching figures for `Cc1csc(C2(CN)C3CCN(c4cnc(Sc5cccnc5C(F)(F)F)c(N)n4)CC32)n1` (stereo not drawn) [Example 73, 6-(7-(aminomethyl)-7-(4-methylthiazol-2-yl)-3-azabicyclo[4.1.0]heptan-3-yl)-3-((2-(trifluoromethyl)pyridin-3-yl)thio)pyrazin-2-amine]: less than 500 nM and 1000 to 5000 nM.
On to `Cc1csc(C2(CN)C3CCN(c4cnc(Sc5ccnc(N)c5Cl)c(N)n4)CC32)n1` (stereo not drawn) [Example 74, 3-((2-amino-3-chloropyridin-4-yl)thio)-6-(7-(aminomethyl)-7-(4-methylthiazol-2-yl)-3-azabicyclo[4.1.0]heptan-3-yl)pyrazin-2-amine], for which the IC50 in assay [1] is less than 500 nM; in assay [2], 1000 to 5000 nM.
In the case of `NCC1C2CCN(c3cnc(Sc4cccnc4C(F)(F)F)c(N)n3)CC12` (stereo not drawn) [Example 75, 6-(7-(aminomethyl)-3-azabicyclo[4.1.0]heptan-3-yl)-3-((2-(trifluoromethyl)pyridin-3-yl)thio)pyrazin-2-amine], the IC50 in assay [1] (setting [3]) is less than 500 nM; in assay [2] (KYSE-520, 2 h), greater than 5000 nM.
For `Cc1csc(C2(CN)C3CCN(c4ncc(Sc5ccnc(N)c5Cl)c5nccn45)CC32)n1` (stereo not drawn) [Example 76, 4-((5-(7-(aminomethyl)-7-(4-methylthiazol-2-yl)-3-azabicyclo[4.1.0]heptan-3-yl)imidazo[1,2-c]pyrimidin-8-yl)thio)-3-chloropyridin-2-amine], the IC50 in assay [1] is less than 500 nM; in assay [2], greater than 5000 nM.
With `Cc1csc(C2(CN)C3CCN(c4cnc5c(-c6cccc(Cl)c6Cl)n[nH]c5n4)CC32)n1` (stereo not drawn) [Example 77, (3-(3-(2,3-dichlorophenyl)-1H-pyrazolo[3,4-b]pyrazin-6-yl)-7-(4-methylthiazol-2-yl)-3-azabicyclo[4.1.0]heptan-7-yl)methanamine], the IC50 is less than 500 nM in assay [1] (setting [3]) and less than 1000 nM in assay [2] (KYSE-520, 2 h).
The matching figures for `Cc1csc([C@@]2(CN)[C@@H]3CCN(c4cnc5c(-c6cccc(Cl)c6Cl)n[nH]c5n4)C[C@@H]32)n1` [Example 78, ((1S,6R,7S)-3-(3-(2,3-dichlorophenyl)-1H-pyrazolo[3,4-b]pyrazin-6-yl)-7-(4-methylthiazol-2-yl)-3-azabicyclo[4.1.0]heptan-7-yl)methanamine]: less than 500 nM and less than 1000 nM.
For `Cc1csc([C@@]2(CN)[C@@H]3CCN(c4cnc5c(-c6ccc7nn(C)cc7c6Cl)n[nH]c5n4)C[C@@H]32)n1` [Example 79, ((1S,6R,7S)-3-(3-(4-chloro-2-methyl-2H-indazol-5-yl)-1H-pyrazolo[3,4-b]pyrazin-6-yl)-7-(4-methylthiazol-2-yl)-3-azabicyclo[4.1.0]heptan-7-yl)methanamine] the same measures were less than 500 nM and less than 1000 nM.
As to `NCC1(c2ccccc2)C2CCN(c3cnc4c(-c5cccc(Cl)c5Cl)n[nH]c4n3)CC21` (stereo not drawn) [Example 80, (3-(3-(2,3-dichlorophenyl)-1H-pyrazolo[3,4-b]pyrazin-6-yl)-7-phenyl-3-azabicyclo[4.1.0]heptan-7-yl)methanamine], the half-maximal inhibitory concentration (IC50) was less than 500 nM in assay [1] (setting [3]) and less than 1000 nM in assay [2] (KYSE-520, 2 h).
As to `Cn1cc2c(Cl)c(-c3n[nH]c4nc(N5CCC6C(C5)C6(CN)c5ccccc5)cnc34)ccc2n1` (stereo not drawn) [Example 81, (3-(3-(4-chloro-2-methyl-2H-indazol-5-yl)-1H-pyrazolo[3,4-b]pyrazin-6-yl)-7-phenyl-3-azabicyclo[4.1.0]heptan-7-yl)methanamine], the IC50 in assay [1] (setting [3]) is less than 500 nM; in assay [2] (KYSE-520, 2 h), less than 1000 nM.
The matching figures for `NCC1(c2ccccn2)C2CCN(c3cnc4c(-c5cccc(Cl)c5Cl)n[nH]c4n3)CC21` (stereo not drawn) [Example 82, (3-(3-(2,3-dichlorophenyl)-1H-pyrazolo[3,4-b]pyrazin-6-yl)-7-(pyridin-2-yl)-3-azabicyclo [4.1.0]heptan-7-yl)methanamine]: less than 500 nM and less than 1000 nM.
For `NCC1(c2ncccn2)C2CCN(c3cnc4c(-c5cccc(Cl)c5Cl)n[nH]c4n3)CC21` (stereo not drawn) [Example 83, (3-(3-(2,3-dichlorophenyl)-1H-pyrazolo[3,4-b]pyrazin-6-yl)-7-(pyrimidin-2-yl)-3-azabicyclo [4.1.0]heptan-7-yl)methanamine] the same measures were less than 500 nM and less than 1000 nM.
The matching figures for `Cc1csc(C2(CN)C3CCN(c4cnc5c(-c6ccccc6Cl)n[nH]c5n4)CC32)n1` (stereo not drawn) [Example 84, (3-(3-(2-chlorophenyl)-1H-pyrazolo[3,4-b]pyrazin-6-yl)-7-(4-methylthiazol-2-yl)-3-azabicyclo[4.1.0]heptan-7-yl)methanamine]: less than 500 nM and less than 1000 nM.
On to `Cc1csc(C2(CN)C3CCN(c4cnc5c(-c6cccc(Cl)c6)n[nH]c5n4)CC32)n1` (stereo not drawn) [Example 85, (3-(3-(3-chlorophenyl)-1H-pyrazolo[3,4-b]pyrazin-6-yl)-7-(4-methylthiazol-2-yl)-3-azabicyclo[4.1.0]heptan-7-yl)methanamine], for which the 50% inhibitory concentration (IC50) in assay [1] (setting [3]) was less than 500 nM; in assay [2] (KYSE-520, 2 h), less than 1000 nM.
The matching figures for `Cc1csc(C2(CN)C3CCN(c4cnc5c(-c6cccc(F)c6F)n[nH]c5n4)CC32)n1` (stereo not drawn) [Example 86, (3-(3-(2,3-difluorophenyl)-1H-pyrazolo[3,4-b]pyrazin-6-yl)-7-(4-methylthiazol-2-yl)-3-azabicyclo[4.1.0]heptan-7-yl)methanamine]: less than 500 nM and less than 1000 nM.
For `COc1cccc(-c2n[nH]c3nc(N4CCC5C(C4)C5(CN)c4nc(C)cs4)cnc23)c1Cl` (stereo not drawn) [Example 87, (3-(3-(2-chloro-3-methoxyphenyl)-1H-pyrazolo[3,4-b]pyrazin-6-yl)-7-(4-methylthiazol-2-yl)-3-azabicyclo[4.1.0]heptan-7-yl)methanamine] the same measures were less than 500 nM and less than 1000 nM.
The matching figures for `Cc1csc(C2(CN)C3CCN(c4cnc5c(-c6cccc7ncccc67)n[nH]c5n4)CC32)n1` (stereo not drawn) [Example 88, (7-(4-methylthiazol-2-yl)-3-(3-(quinolin-5-yl)-1H-pyrazolo[3,4-b]pyrazin-6-yl)-3-azabicyclo[4.1.0]heptan-7-yl)methanamine]: less than 500 nM and less than 1000 nM.
In the case of `Cc1csc(C2(CN)C3CCN(c4cnc5c(-c6cccc7ccccc67)n[nH]c5n4)CC32)n1` (stereo not drawn) [Example 89, (7-(4-methylthiazol-2-yl)-3-(3-(naphthalen-1-yl)-1H-pyrazolo[3,4-b]pyrazin-6-yl)-3-azabicyclo[4.1.0]heptan-7-yl)methanamine], the IC50 in assay [1] (setting [3]) is less than 500 nM; in assay [2] (KYSE-520, 2 h) it was less than 1000 nM.
In the case of `Cc1csc(C2(CN)C3CCN(c4cnc5c(-c6cccnc6C(F)(F)F)n[nH]c5n4)CC32)n1` (stereo not drawn) [Example 90, (7-(4-methylthiazol-2-yl)-3-(3-(2-(trifluoromethyl)pyridin-3-yl)-1H-pyrazolo[3,4-b]pyrazin-6-yl)-3-azabicyclo[4.1.0]heptan-7-yl)methanamine], the half-inhibitory concentration (IC50) in assay [1] (setting [3]) was less than 500 nM; in assay [2] (KYSE-520, 2 h), less than 1000 nM.
The matching figures for `Cc1csc(C2(CN)C3CCN(c4cnc5c(-c6cccc7c6OCO7)n[nH]c5n4)CC32)n1` (stereo not drawn) [Example 91, (3-(3-(Benzo[d][1,3]dioxol-4-yl)-1H-pyrazolo[3,4-b]pyrazin-6-yl)-7-(4-methylthiazol-2-yl)-3-azabicyclo[4.1.0]heptan-7-yl)methanamine]: less than 500 nM and less than 1000 nM.
